Measurements as given in patent US20100303754A1, “PROCESS FOR PREPARATION OF CYCLODEXTRIN OLIGOMERS OR POLYMERS, PRODUCTS OBTAINED AND USES” (BIOCYDEX, priority 2006, published 2010).
≈ marks a conversion by molar mass, not a printed value.

Experiment: Solubilization tests of active ingredients by cyclodextrin dimers/trimer (soluble fraction analysed by CLHP)
Format: physicochemical
Conditions: thermodynamic from solid; Water alone, no cyclodextrin oligomer; stirred 24 hours; read-out: Amount of active ingredient solubilized in water
Description: Each solution is stirred for 24 hours, and then the soluble fractions are analyzed by CLHP after ultracentrifuging and filtration.

For `CCC(=O)O[C@]1(C(=O)SCF)[C@H](C)C[C@H]2[C@@H]3C[C@H](F)C4=CC(=O)C=C[C@]4(C)[C@@]3(F)[C@@H](O)C[C@@]21C` [Fluticasone Propionate], the solubility at 24 h was 0.1 µg/mL (≈ 0.2 µM).
In the case of `CC[C@H]1OC(=O)[C@H](C)[C@@H](O[C@H]2C[C@@](C)(OC)[C@@H](O)[C@H](C)O2)[C@H](C)[C@@H](O[C@@H]2O[C@H](C)C[C@H](N(C)C)[C@H]2O)[C@](C)(O)C[C@@H](C)/C(=N\OCOCCOC)[C@H](C)[C@@H](O)[C@]1(C)O` [Roxithromycin], the solubility at 24 h is reported as 464 µg/mL (≈ 555 µM).
With `CC(=O)O[C@H]1C(=O)[C@@]2(C)[C@H]([C@H](OC(=O)c3ccccc3)[C@]3(O)C[C@H](OC(=O)[C@H](O)[C@@H](NC(=O)c4ccccc4)c4ccccc4)C(C)=C1C3(C)C)[C@]1(OC(C)=O)CO[C@@H]1C[C@@H]2O` [Taxol] the solubility at 24 h was 0.7 µg/mL (≈ 0.82 µM).
Compound `CC(=O)O[C@@]12CO[C@@H]1C[C@H](O)[C@@]1(C)C(=O)[C@H](O)C3=C(C)[C@@H](OC(=O)[C@H](O)[C@@H](NC(=O)OC(C)(C)C)c4ccccc4)C[C@@](O)([C@@H](OC(=O)c4ccccc4)[C@H]21)C3(C)C` [Taxotere] has a solubility at 24 h of 4 µg/mL (≈ 4.95 µM).
For `C[C@@H](c1ncncc1F)[C@](O)(Cn1cncn1)c1ccc(F)cc1F` [Voriconazole], the solubility at 24 h was 685 µg/mL (≈ 1960 µM).
